Reference: patent US20260001886A1, “ENPP1 INHIBITORS I” (RE Ventures I, LLC, priority 2024, published 2026)
Like-named read-outs stand apart in the source and are kept apart here.

How the values were obtained:
[1] = biological target: T1, human CA-II (CA2) (Homo sapiens (Human), UniProt P00918); assay: biochemical
Description: (§1) Cytiva Biacore S200, T200 and 3000 machines were used for all SPR experiments. […] For carbonic anhydrases, data were collected at a constant temperature of 25° C. Human CA-I (CA1) or human CA-II (CA2) was captured via standard EDC/NHS protocol on a Biacore CM5 chip using standard protocols in HBS-N buffer (10 mM HEPES (pH 7.4), 150 mM NaCl) at ˜2000 RU. The experiments were run in PBS buffer containing 0.05% Tween 20 and 3% DMSO. All compounds were initially screened at concentrations ranging from 23 nM to 50 µM or 4.6 nM to 10 µM, injecting from the lowest to highest concentrations and adjusting appropriately for each compound for repeat experiments. Scrubber 2 (Biologic software) was used to process and analyse SPR data. […] Data for the inhibitors were referenced to those for a blank surface and blank injections to normalise for non-specific binding and drift. A DMSO calibration was run to remove excluded volume effect of binding responses between reference and target surface.

[2] = biological target: T2, human CA-I (CA1) (Homo sapiens (Human), UniProt P00915); assay: biochemical
Description: as §1

[3] = biological target: ENPP1 expressed by MCF-7 cells (Homo sapiens (Human), UniProt P22413); assay: cell-based
Chain of ENPP1 expressed by MCF-7 cells (P22413 whole entry): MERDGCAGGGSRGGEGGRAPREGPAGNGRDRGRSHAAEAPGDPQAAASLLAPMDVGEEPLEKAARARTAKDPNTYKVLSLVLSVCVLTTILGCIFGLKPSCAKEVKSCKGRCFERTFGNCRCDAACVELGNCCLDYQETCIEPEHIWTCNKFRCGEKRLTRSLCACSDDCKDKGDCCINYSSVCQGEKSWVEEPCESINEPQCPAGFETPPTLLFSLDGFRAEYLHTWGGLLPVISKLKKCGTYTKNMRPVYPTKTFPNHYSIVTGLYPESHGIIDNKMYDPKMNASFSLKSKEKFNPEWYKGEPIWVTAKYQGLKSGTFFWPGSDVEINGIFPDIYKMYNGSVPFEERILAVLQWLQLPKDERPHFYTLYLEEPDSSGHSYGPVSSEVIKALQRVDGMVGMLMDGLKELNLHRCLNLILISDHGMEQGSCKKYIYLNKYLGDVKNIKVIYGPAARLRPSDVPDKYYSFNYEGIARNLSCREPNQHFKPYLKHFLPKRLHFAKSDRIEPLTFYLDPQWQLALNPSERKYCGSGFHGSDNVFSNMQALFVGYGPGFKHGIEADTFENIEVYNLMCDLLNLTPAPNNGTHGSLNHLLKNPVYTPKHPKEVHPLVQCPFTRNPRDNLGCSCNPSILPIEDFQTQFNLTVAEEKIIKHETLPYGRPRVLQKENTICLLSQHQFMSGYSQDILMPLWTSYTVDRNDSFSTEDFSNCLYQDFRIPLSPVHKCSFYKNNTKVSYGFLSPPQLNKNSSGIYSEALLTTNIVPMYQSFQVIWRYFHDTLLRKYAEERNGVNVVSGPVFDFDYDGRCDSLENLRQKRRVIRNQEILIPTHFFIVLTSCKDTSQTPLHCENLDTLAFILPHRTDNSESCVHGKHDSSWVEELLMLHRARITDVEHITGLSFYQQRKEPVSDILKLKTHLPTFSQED
Description: ENPP1 inhibition was assessed in a human cellular co-culture assay using THP1-Dual interferon reporter cells from InvivoGen (Cat No. thpd-nfis), see Goswami et al., 2022, and MCF-7 cancer cells.
MCF-7 cells were seeded at 10,000 cells/well in a 96 well plate and 24 h later compounds were added in DMEM+GlutaMAX media+2% Hyclone FBS, with a final DMSO of 0.2%. 2′3′-cGAMP was added at a final concentration of 10 μM and incubated for 30 mins at 37° C. 20,000 THP-1 cells were added per well and incubated for 48 h. IFN response was measured by Quanti-Luc Gold according to the manufacturer's instructions using 15 μL Quanti-Luc Gold per well. Luminescence was measured on an EnSight reader (PerkinElmer).

[4] = biological target: T3, Human ENPP1 (Homo sapiens (Human), UniProt P22413); assay: biochemical
T3 sequence (P22413 whole entry): as above
Description: (§2) ENPP1 catalyses the hydrolysis of ATP into AMP+PPi. AMP production was monitored using Bellbrooks Transcreener AMP/GMP TR-FRET assay kit (Cat No. 3020-10K) according to the manufacturer's instructions. The assay was run with 50 mM Tris pH 7.5, 5 mM MgCl2, 150 mM NaCl, 0.005% Tween20 and distilled H2O. Antibody and tracer were diluted to 2 nM. […] Mouse ENPP1 was run at 15 pM with ATP at 400 nM. AMP produced in the assay by ENPP1 activity competes with a far-red tracer labelled AMP bound to an AMP specific antibody resulting in a decrease in TR-FRET. ENPP1 inhibition reduces AMP production and increases the TR-FRET signal.

[5] = biological target: T1, human CA-II (CA2); assay: Surface plasmon resonance, carbonic anhydrase II; settings: 25° C., CM5 chip
Description: as §1

[6] = biological target: T3, Human ENPP1
Description: as §2

[7] = biological target: T2, human CA-I (CA1); assay: Surface plasmon resonance, carbonic anhydrase I; settings: 25° C., CM5 chip
Description: as §1

[8] = tested on: Alpl^Prx1 mouse; assay: In vivo Model 1: Alpl^Prx1 mouse model of hypophosphatasia (HPP)
Description: Bone tissues were fixed in 4% PFA.
PPi levels were measured using a standard method involving ATPsulfurylase. […] ATP converted from PPi in the samples was mixed with BacTiter-Glo (Promega) and luminescence was quantified in duplicated reactions using a iD3X plate reader (Molecular Device). Values obtained from reactions without ATPsulfurylase were subtracted to eliminate ATP which possibly existed in the plasma samples.
Plasma chemistry was performed using Vetscan VS2 analyzer with Comprehensive Diagnostic Profiles rotor (Abaxis). […] Mouse OPN was measured with Quantikine®-ELISA kit (R&D).
Radiographic images were obtained by using XPERT 80-Kubtec Scientific.
Three stained sections per mouse were analyzed by Keyence microscope to obtain an average value of mineralized area. Five mice per genotype were used (n=5).

[9] = oral in diet, after 100 days of dosing

T2 sequence (P00915 whole entry): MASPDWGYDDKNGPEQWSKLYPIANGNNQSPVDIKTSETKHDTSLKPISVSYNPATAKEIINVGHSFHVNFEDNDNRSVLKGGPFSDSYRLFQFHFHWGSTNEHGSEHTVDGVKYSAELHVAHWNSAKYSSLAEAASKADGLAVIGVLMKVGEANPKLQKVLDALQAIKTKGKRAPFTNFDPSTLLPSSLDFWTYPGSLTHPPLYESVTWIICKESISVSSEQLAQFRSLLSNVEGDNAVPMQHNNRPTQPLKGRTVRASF

Row | SMILES | Kd [1] | Kd [2] | EC50 [3] | EC50 [6] | other results
1 | CCc1nc2n(Cc3ccc(S(C)(=N)=O)cc3)cc(C(C)C)c(=O)n2n1 (racemic) [31 Rac] | > 100000 µM | > 100000 µM |  |  | 
2 | CC(C)c1cn(Cc2ccc(S(C)(=N)=O)cc2)c2nc(CC(F)(F)F)nn2c1=O (single isomer, unassigned) [Compound 32A] | > 100000 µM | > 100000 µM | 0.0794 µM |  | EC50 [4]: 0.00631 µM
3 | CC(C)c1nc2n(Cc3ccc(S(C)(=N)=O)cc3)cc(C(C)C)c(=O)n2n1 (stereo not drawn) [Compound 30, 2,6-diisopropyl-4-(4-(S-methylsulfonimidoyl)benzyl)-[1,2,4]triazolo[1,5-a]pyrimidin-7(4H)-one] |  |  | 0.0794 µM | 0.00398 µM | CA2 human SPR pKD [5]: <1; CA1 human SPR pKD [7]: <1
4 | Cc1cc(Cn2cc(C(C)C)c(=O)n3nc(C4CC4)cc23)ccc1[S@@](C)(=N)=O (single isomer, unassigned) [Compound 58A] |  |  | 0.2 µM | 0.00126 µM | 
5 | CC(C)c1cn(C[C@@H]2C[C@@H]3C[C@H]2CN3S(N)(=O)=O)c2ncnn2c1=O [Compound 37, (1R,4R,5R)-5-((6-isopropyl-7-oxo-[1,2,4]triazolo[1,5-a]pyrimidin-4(7H)-yl)methyl)-2-azabicyclo[2.2.1]heptane-2-sulfonamide] |  | > 100000 µM |  |  | 
6 | CC(C)c1cn(Cc2ccc([S@@](C)(=N)=O)cc2)c2nc(CC(F)(F)F)nn2c1=O (single isomer, unassigned) [Compound 32B] | > 100000 µM | > 100000 µM |  |  | 
7 | CCc1nc2n(Cc3ccc([S@@](C)(=N)=O)cc3)cc(C(C)C)c(=O)n2n1 (single isomer, unassigned) [Compound 31A] | > 100000 µM | > 100000 µM |  |  | 
8 | Cc1cc(Cn2cc(C(C)C)c(=O)n3nc(C4CC4)cc23)ccc1S(C)(=N)=O (racemic) [58 Rac] |  | > 100000 µM |  |  | EC50 [4]: 0.002 µM
9 | CC[S@](=N)(=O)c1ccc(Cn2cc(C(C)C)c(=O)n3nc(C4CC4)nc23)cc1 (single isomer, unassigned) [Compound 56A] |  |  | 0.0398 µM | 0.001 µM | 
10 | CC(C)c1cn(Cc2ccc(S(C)(=N)=O)cc2)c2nc(CC(F)(F)F)nn2c1=O (racemic) [32 Rac] | > 100000 µM | > 100000 µM |  |  | EC50 [4]: 0.00794 µM
11 | CCS(=N)(=O)c1ccc(Cn2cc(C(C)C)c(=O)n3nc(C4CC4)nc23)cc1 (racemic) [56 Rac] | 31.6 µM |  |  |  | EC50 [4]: 0.00251 µM
12 | CC(C)c1cn(Cc2ccc(S(=N)(=O)C3CC3)cc2)c2nc(C3CC3)nn2c1=O (stereo not drawn) [Compound 54, 4-(4-(Cyclopropanesulfonimidoyl)benzyl)-2-cyclopropyl-6-isopropyl-[1,2,4]triazolo[1,5-a]pyrimidin-7(4H)-one] |  |  | 0.0398 µM | 0.00126 µM | 
13 | Cc1cc2n(Cc3ccc(S(C)(=N)=O)cc3)cc(C(C)C)c(=O)n2n1 (single isomer, unassigned) [Compound 9A] | > 100000 µM | > 100000 µM |  |  | 
14 | Cc1cc2n(Cc3ccc(S(C)(=N)=O)cc3)cc(C(C)C)c(=O)n2n1 (racemic) [9 Rac] | > 100000 µM | > 100000 µM |  |  | 
15 | CC(C)c1cn(Cc2ccc(S(N)(=O)=O)c(-c3ccccc3)n2)c2nc(C3CC3)nn2c1=O [Compound 27, 6-((2-cyclopropyl-6-isopropyl-7-oxo-[1,2,4]triazolo[1,5-a]pyrimidin-4(7H)-yl)methyl)-2-phenylpyridine-3-sulfonamide] |  |  | 0.251 µM | 0.00631 µM | CA2 human SPR pKD [5]: 3.0; CA1 human SPR pKD [7]: 3.0
16 | Cc1cc(Cn2cc(C(C)C)c(=O)n3nc(C4CC4)nc23)ccc1S(C)(=N)=O (stereo not drawn) [Compound 71, 2-Cyclopropyl-6-isopropyl-4-(3-methyl-4-(S-methylsulfonimidoyl)benzyl)-[1,2,4]triazolo[1,5-a]pyrimidin-7(4H)-one] |  |  | 0.251 µM | 0.00316 µM | 
17 | CC(C)c1cn(C[C@H]2C[C@H]3C[C@@H]2CN3S(N)(=O)=O)c2nc(C(F)(F)F)nn2c1=O (racemic) [Compound 36, rac-(1R,4R,5R)-5-((6-isopropyl-7-oxo-2-(trifluoromethyl)-[1,2,4]triazolo[1,5-a]pyrimidin-4(7H)-yl)methyl)-2-azabicyclo[2.2.1]heptane-2-sulfonamide] |  | > 100000 µM |  |  | 
18 | CC(C)c1cn(Cc2ccc([S@](C)(=N)=O)c(F)c2)c2cc(C3CC3)nn2c1=O (single isomer, unassigned) [Compound 72] |  |  | 0.2 µM | 0.00251 µM | 
19 | CC(C)c1cn(Cc2ccc([S@@](=N)(=O)C3CC3)cc2)c2nc(C3CC3)nn2c1=O (single isomer, unassigned) [Compound 55] |  |  | 0.0251 µM | 0.000316 µM | 
20 | CC(C)c1cn(Cc2ccc(S(N)(=O)=O)cc2)c2nc(C3CC3)nn2c1=O [Compound 11, 4-((2-cyclopropyl-6-isopropyl-7-oxo-[1,2,4]triazolo[1,5-a]pyrimidin-4(7H)-yl)methyl)benzenesulfonamide] |  |  |  |  | Bone mineralization of the bone cortex (X-ray, tibia / knee joints) ([8]; male and female mice, oral in diet, 100 days): increased bone mineralization; Plasma chemistry (significant changes; transaminase, amylase, BUN, Ca) ([8]; male mice, WT, control and treated): only observed between WT and HPP mice; Mineralization of L3 vertebrate bone (bone morphometry, Von Kossa) ([8]; oral in diet, 100 days): increased to the levels of wild-type mice; Mineralization of trabecular bones of the distal femur (bone morphometry, Von Kossa) ([8]; oral in diet, 100 days): slight improvement in mineralization; Plasma AP levels [8, 9]: did not affect; Plasma OPN levels [8, 9]: did not affect; Plasma PPi levels [8, 9]: reduced to the levels of WT mice
21 | Cc1cc(Cn2cc(C(C)C)c(=O)n3nc(C4CC4)nc23)ccc1[S@](C)(=N)=O (single isomer, unassigned) [Compound 65] |  |  | 0.0398 µM | 0.00158 µM | 
22 | CCc1nc2n(Cc3ccc([S@](C)(=N)=O)cc3)cc(C(C)C)c(=O)n2n1 (single isomer, unassigned) [Compound 31B] | > 100000 µM | > 100000 µM |  |  | 
